Target: T1, CjCBM5 (family 5 carbohydrate-binding module of CjLPMO10A) (Cellvibrio japonicus, UniProt B3PJ79)
T1 construct: gene cbp33A; isolated CBM5 domain, residues 251-309 of 397; extra N-terminal Met, C-terminal Ala + 6xHis tag kept; 15N-labelled; E. coli cytoplasmic expression (pNIC-CH)
Assay: NMR titration, […]-HSQC chemical shift perturbation
Settings: 50 mM sodium phosphate, pH 7.0, 10% D2O; 70 uM 15N-labelled protein; average of W283, T284, Q285, Y296, G297

T1 sequence (B3PJ79 entry or part of it): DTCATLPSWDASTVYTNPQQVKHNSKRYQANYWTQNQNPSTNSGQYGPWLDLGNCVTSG

## CC(=O)N[C@H]1[C@H](O[C@H]2[C@H](O)[C@@H](NC(C)=O)C(O[C@H]3[C@H](O)[C@@H](NC(C)=O)C(O[C@H]4[C@H](O)[C@@H](NC(C)=O)C(O[C@H]5[C@H](O)[C@@H](NC(C)=O)C(O[C@H]6[C@H](O)[C@@H](NC(C)=O)C(O)O[C@@H]6CO)O[C@@H]5CO)O[C@@H]4CO)O[C@@H]3CO)O[C@@H]2CO)O[C@H](CO)[C@@H](O)[C@@H]1O (stereo partly shown) [chitohexaose]
  Kd: 2000 ± 1000 µM
